≈ marks a conversion by molar mass, not a printed value. Square brackets hold non-standard residues; d marks the D form. Peptide text beside a SMILES is read from it.
Tests used:
Enterococcus faecalis [1] = experiment: Antibacterial activity against Enterococcus faecalis ATCC 29212 after overnight incubation; format: functional
Escherichia coli [2] = experiment: Antibacterial activity against Escherichia coli ATCC 25922 after overnight incubation; format: functional
Staphylococcus aureus [3] = experiment: Antibacterial activity against Staphylococcus aureus ATCC 29213 after overnight incubation; format: functional
Staphylococcus aureus [4] = experiment: Antibacterial activity against Staphylococcus aureus 209P incubated for 20 hrs by liquid microdilution method; format: functional
Escherichia coli [5] = experiment: Antibacterial activity against Escherichia coli K-12 strain W3110 incubated for 20 hrs by liquid microdilution method; format: functional; details: K-12 substr. W3110, 20 h
Escherichia coli [6] = experiment: Antibacterial activity against Escherichia coli NBRC 12734 after overnight incubation by microplate dilution method; format: functional
Bacillus subtilis = experiment: Antibacterial activity against Bacillus subtilis NBRC 3513 after overnight incubation by microplate dilution method; format: functional
Staphylococcus aureus [7] = experiment: Antibacterial activity against Staphylococcus aureus NBRC 12732 after overnight incubation by microplate dilution method; format: functional
Priestia megaterium = experiment: Antibacterial activity against Bacillus megaterium ATCC 19213 after overnight incubation by microplate dilution method; format: functional
[8] = Hemolytic activity in sheep RBC incubated for 30 mins; format: ADME, cell-based, Ovis aries, Erythrocyte; details: sheep red blood cells
Pseudomonas aeruginosa [9] = experiment: Antibacterial activity against Pseudomonas aeruginosa NBRC 3080 after overnight incubation by microplate dilution method; format: functional
Escherichia coli [10] = experiment: Antibacterial activity against Escherichia coli ATCC 25922 after 24 hrs; format: functional; details: ATCC 25922, 24 h
Pseudomonas aeruginosa [11] = experiment: Antibacterial activity against Pseudomonas aeruginosa ATCC 27853 incubated for 24 hrs; format: functional; details: ATCC 27853, 24 h
Staphylococcus aureus [12] = experiment: Antibacterial activity against Staphylococcus aureus ATCC 29213 after 24 hrs; format: functional; details: ATCC 29213, 24 h
Enterococcus faecalis [13] = experiment: Antibacterial activity against Enterococcus faecalis ATCC 29212 after 24 hrs; format: functional; details: ATCC 29212, 24 h
[14] = Haemolytic activity in human erythrocytes incubated for 30 mins; format: ADME, cell-based, Erythrocyte
[15] = Therapeutic index, ratio of HD100 for hemolytic activity in human RBC to MIC against Pseudomonas aeruginosa H187; format: toxicity; details: human red blood cells, read-out: TI
[16] = Therapeutic index, ratio of HD100 for hemolytic activity in human RBC to MIC against Escherichia coli UB1005; format: toxicity; details: human red blood cells, read-out: TI
Lipopolysaccharide (LPS) = experiment: Displacement of Dansyl-polymyxin from Pseudomonas aeruginosa LPS by fluorescence method; details: read-out: I50
[17] = Therapeutic index, ratio of HD100 for hemolytic activity in human RBC to MIC against Staphylococcus aureus K147; format: toxicity; details: human red blood cells, read-out: TI
Erythrocyte = experiment: Haemolytic activity in human RBC after 4 hrs by visual method; format: ADME, cell-based
Pseudomonas aeruginosa [18] = experiment: Antibacterial activity against Pseudomonas aeruginosa H187 after overnight incubation by microtiter dilution method; format: functional
[19] = Therapeutic index, ratio of HD100 for hemolytic activity in human RBC to MIC against Enterococcus faecalis ATCC 29212; format: toxicity; details: human red blood cells, read-out: TI
Candida albicans = experiment: Antibacterial activity against Candida albicans after overnight incubation by microtiter dilution method; format: functional
Escherichia coli [20] = experiment: Antibacterial activity against Escherichia coli UB1005 after overnight incubation by microtiter dilution method; format: functional
Enterococcus faecalis [21] = experiment: Antibacterial activity against Enterococcus faecalis ATCC 29212 after overnight incubation by microtiter dilution method; format: functional
Staphylococcus aureus [22] = experiment: Antibacterial activity against Staphylococcus aureus K147 after overnight incubation by microtiter dilution method; format: functional

**Q.** With `CC(C)C[C@@H]1NC(=O)[C@H](CCCN)NC(=O)[C@H](C(C)C)NC(=O)[C@@H]2CCCN2C(=O)[C@@H](Cc2ccc(O)cc2)NC(=O)[C@H](CC(C)C)NC(=O)[C@@H](CCCN)NC(=O)[C@H](C(C)C)NC(=O)[C@@H]2CCCN2C(=O)[C@@H](Cc2ccc(O)cc2)NC1=O` as the compound, how does the MIC (Enterococcus faecalis [1]) read?
**A.** The MIC was 32 µg/mL (≈ 27.3 µM).

**Q.** And the MIC (Escherichia coli [2])?
**A.** Its MIC is 64 µg/mL (≈ 54.5 µM).

**Q.** What about the MIC (Staphylococcus aureus [3]) of the same compound?
**A.** The MIC was 32 µg/mL (≈ 27.3 µM).

**Q.** With `CC(C)C[C@@H]1NC(=O)[C@H](CCCN)NC(=O)[C@H](C(C)C)NC(=O)[C@@H]2C[C@@H](N[C@@H](Cc3ccccc3)C(=O)O)CN2C(=O)[C@@H](Cc2ccccc2)NC(=O)[C@H](CC(C)C)NC(=O)[C@H](CCCN)NC(=O)[C@H](C(C)C)NC(=O)[C@@H]2C[C@@H](N[C@@H](Cc3ccccc3)C(=O)O)CN2C(=O)[C@@H](Cc2ccccc2)NC1=O` [listing 1 of 2 here] as the compound, how does the MIC (Staphylococcus aureus [4]) read?
**A.** The MIC was 8 µg/mL (≈ 5.45 µM).

**Q.** And the MIC (Escherichia coli [5])?
**A.** Its MIC is 16 µg/mL (≈ 10.9 µM).

**Q.** Which results are given for `CC(C)C[C@@H]1NC(=O)[C@H](CCCN)NC(=O)[C@H](C(C)C)NC(=O)[C@H](CCCCN)NC(=O)[C@@H](Cc2ccccc2)NC(=O)[C@H](CC(C)C)NC(=O)[C@@H](CCCN)NC(=O)[C@H](C(C)C)NC(=O)[C@H](CCCCN)NC(=O)[C@@H](Cc2ccccc2)NC1=O`?
**A.** MIC (Escherichia coli [6]): 25 µg/mL (≈ 20.8 µM); MIC (Bacillus subtilis): 6.25 µg/mL (≈ 5.19 µM); MIC (Staphylococcus aureus [7]): 3.13 µg/mL (≈ 2.6 µM); MIC (Priestia megaterium): 3.13 µg/mL (≈ 2.6 µM); HC50 at 0.5 h [8]: > 200 µg/mL; MIC (Pseudomonas aeruginosa [9]): 50 µg/mL (≈ 41.5 µM)

**Q.** For `CC(C)C[C@@H]1NC(=O)[C@H](CCCN)NC(=O)[C@H](C(C)C)NC(=O)[C@@H]2CCCN2C(=O)[C@@H](Cc2ccc(OCc3ccccc3)cc2)NC(=O)[C@H](CC(C)C)NC(=O)[C@@H](CCCN)NC(=O)[C@H](C(C)C)NC(=O)[C@@H]2CCCN2C(=O)[C@@H](Cc2ccc(OCc3ccccc3)cc2)NC1=O`, which MIC (Enterococcus faecalis [1]) is on record?
**A.** The MIC was 8 µg/mL (≈ 5.91 µM).

**Q.** What about the MIC (Escherichia coli [2]) of the same compound?
**A.** The MIC was 64 µg/mL (≈ 47.3 µM).

**Q.** And the MIC (Staphylococcus aureus [3])?
**A.** Its MIC is 8 µg/mL (≈ 5.91 µM).

**Q.** Which results are given for `CC(C)C[C@@H]1NC(=O)[C@H](CCCN)NC(=O)[C@H](C(C)C)NC(=O)[C@@H]2CCCN2C(=O)[C@@H](Cc2ccccc2)NC(=O)[C@H](CC(C)C)NC(=O)[C@H](CCCN)NC(=O)[C@H](C(C)C)NC(=O)[C@@H]2CCCN2C(=O)NC(=O)[C@H](Cc2ccccc2)NC(=O)[C@H](CCCN)NC1=O`?
**A.** MIC (Escherichia coli [6]): 25 µg/mL (≈ 19.3 µM); MIC (Bacillus subtilis): 6.25 µg/mL (≈ 4.81 µM); MIC (Staphylococcus aureus [7]): 3.13 µg/mL (≈ 2.41 µM); MIC (Priestia megaterium): 3.13 µg/mL (≈ 2.41 µM); HC50 at 0.5 h [8]: 90 to 100 µg/mL; MIC (Pseudomonas aeruginosa [9]): 100 µg/mL (≈ 77 µM)

**Q.** What does the source list for `NCCC[C@@H]1NC(=O)[C@H](C23CC4CC(CC(C4)C2)C3)NC(=O)[C@@H]2CCCN2C(=O)[C@@H](Cc2ccccc2)NC(=O)[C@H](C23CC4CC(CC(C4)C2)C3)NC(=O)[C@H](CCCN)NC(=O)[C@H](C23CC4CC(CC(C4)C2)C3)NC(=O)[C@@H]2CCCN2C(=O)[C@@H](Cc2ccccc2)NC(=O)[C@H](C23CC4CC(CC(C4)C2)C3)NC1=O`?
**A.** MIC (Escherichia coli [10]): > 64 µg/mL; MIC (Pseudomonas aeruginosa [11]): > 64 µg/mL; MIC (Staphylococcus aureus [12]): > 64 µg/mL; MIC (Enterococcus faecalis [13]): > 64 µg/mL

**Q.** For `CC(C)C[C@@H]1NC(=O)[C@H](CCCN)NC(=O)[C@H](C(C)C)NC(=O)[C@@H]2C[C@@H](N[C@@H](Cc3ccccc3)C(=O)O)CN2C(=O)[C@@H](Cc2ccccc2)NC(=O)[C@H](CC(C)C)NC(=O)[C@H](CCCN)NC(=O)[C@H](C(C)C)NC(=O)[C@@H]2C[C@@H](N[C@@H](Cc3ccccc3)C(=O)O)CN2C(=O)[C@@H](Cc2ccccc2)NC1=O` [listing 2 of 2 here], which HC50 at 0.5 h [14] is on record?
**A.** The HC50 at 0.5 h was 20 to 50 µg/mL.

**Q.** For `CC(C)C[C@@H]1NC(=O)[C@H](CCCCN)NC(=O)[C@H](C(C)C)NC(=O)[C@@H]2CCCN2C(=O)[C@@H](Cc2ccc(O)cc2)NC(=O)[C@H](CC(C)C)NC(=O)[C@H](CCCCN)NC(=O)[C@H](C(C)C)NC(=O)[C@H](CCCCN)NC(=O)[C@H](CC(C)C)NC(=O)[C@@H]2CCCN2C(=O)[C@@H](Cc2ccc(O)cc2)NC(=O)[C@H](C(C)C)NC(=O)[C@H](CCCCN)NC1=O` (cyclo(KLKV[dY]PLKVKL[dY]PV)), which selectivity ratio [15] is on record?
**A.** The selectivity ratio was less than 0.01.

**Q.** What about the selectivity ratio [16] of the same compound?
**A.** The selectivity ratio was less than 0.01.

**Q.** What about the IC50 (Lipopolysaccharide (LPS)) of the same compound?
**A.** Its IC50 is 3 µM.

**Q.** What about the selectivity ratio [17] of the same compound?
**A.** Its selectivity ratio is less than 0.01.

**Q.** And the HD100 (Erythrocyte)?
**A.** The HD100 was 1.5 µg/mL.

**Q.** And the MIC (Pseudomonas aeruginosa [18])?
**A.** Its MIC is greater than 200 µg/mL.

**Q.** And the selectivity ratio [19]?
**A.** The selectivity ratio was 0.7.

**Q.** What about the MIC (Candida albicans) of the same compound?
**A.** Its MIC is 175 µg/mL (≈ 105 µM).

**Q.** And the MIC (Escherichia coli [20])?
**A.** The MIC was greater than 200 µg/mL.

**Q.** What about the MIC (Enterococcus faecalis [21]) of the same compound?
**A.** Its MIC is 2.3 µg/mL (≈ 1.38 µM).

**Q.** What about the MIC (Staphylococcus aureus [22]) of the same compound?
**A.** Its MIC is greater than 200 µg/mL.

**Q.** With `CC(C)C[C@@H]1NC(=O)[C@H](CCCN)NC(=O)[C@H](C(C)C)NC(=O)[C@@H]2C[C@@H](N)CN2C(=O)[C@@H](Cc2ccccc2)NC(=O)[C@H](CC(C)C)NC(=O)[C@H](CCCN)NC(=O)[C@H](C(C)C)NC(=O)[C@@H]2C[C@@H](N)CN2C(=O)[C@@H](Cc2ccccc2)NC1=O` as the compound, how does the HC50 at 0.5 h [14] read?
**A.** Its HC50 at 0.5 h is 50 to 100 µg/mL.
